# Source: US7476729B2, “Dbait and uses thereof” (Institut Curie, priority 2003, dated 2009)
# Tests used:
# γ-H2AX in Hep2 cells = assay: Kinetics of persistence of DSB sites (γ-H2AX) by FACS in irradiated Hep2 cells; type: cell-based, human; settings: Hep2, 10 Gy, 0 min to 7 days
# Method: To investigate the effect of Dbait on ionizing radiation-induced g-H2AX foci formation and loss, Dbait32H-Cy3 (SEQ ID NO: 1) were transfected in the Hep2 cells by superfect (Qiagen). Transfected or untransfected Hep2 cells were irradiated at 10 Gy. Cells were fixed at different times (0 min, 30 min, 1 hour, 5 hours, 24 hours, 48 hours, 72 hours and 7 days). Primary mouse monoclonal antibody for g-H2AX (ser139) (Upstate, Tempcula, Calif., USA) was used in 1/500 dilution and incubated for 2 hours at 0° C., then washed by PBS buffer and incubated with Alexa 488-conjugated second antibody anti mouse IgG (Molecular Probe, Eugene, Oreg., USA) diluted in 1/200 for 1 hour in dark room.
# [1] = system: U87 xenografted human glioblastoma; assay: Radiosensitization of xenografted human glioblastoma (U87) on nude mice; type: in vivo; settings: for Number of mice where Tumor volume <4 cm^3 At the day 25 (6 mice per group): 1 nmole/intratumoral injection, total 30 Gy
# Excerpt: Radio-sensitization was also observed in mice xenografted with human glioblastoma tumors. The glioblastoma is the highest grade of brain-tumor, and is characterized by its extraordinary aggressive progression with fast fatal outcome and resistance to radio- and chemotherapies. 2-3 millions of U87 cells derived from human glioblastoma was first injected subcutaneously in nude mouse. The grafted tumor was then took out and used to seed subsequently other nude mice by subcutaneous transplant of about 8 mm^3 glioblastoma tumor.
# 50% mice in the arm which received Dbait32H (SEQ ID NO: 1) (1 nmole) by intratumoral injection and irradiation (1×15 Gy/week or 3×5 Gy/week, followed by one week rest, then second treatment cycle, the total dose of ionizing radiation was 30 Gy) had tumor volume<4 cm^3 at the day 25 after the start of treatment, whereas 100% mice in the control arms (untreated or irradiated and injected with saline solution (PBS) had tumor volume well exceeded 4 cm^3, and were killed before the end of the assay according to current regulation on animal ethics before the end of the treatment.
# Table 3.1: Assay of radiosensitization of xenografted human glioblastoma on nude mice by Dbait32H (SEQ ID NO: 1) (1 nmole/intratumoral injection) previously named DRIL32-PEG. Two protocols of irradiation (5 hours after intratumoral injection) were used: 1×15 Gy/week, or 3×5 Gy/week, followed by one week rest, the second treatment cycle. The total irradiation dose was 30 Gy. Control groups were the untreated or the groups received saline solution (PBS) injection.
substance,measurement,setting,value
"Dbait32H: hairpin double strand DNA with a stem of 32-bp, hexaethyleneglycol linker, phosphorothioate at the free blunt end (DNA ACGCACGGGTGTTGGGTCGTTTGTTCGGATCT; DNA, backbone not given here; hairpin, hexaethyleneglycol loop, 3-bp phosphorothioate at free blunt end)",level of γ-H2AX over time (FACS),γ-H2AX in Hep2 cells,remained high and long
same,mice with tumor volume<4 cm^3 at the day 25,[1]; 1 nmole intratumoral and irradiation (1×15 Gy/week or 3×5 Gy/week),50%
same,Number of mice where Tumor volume <4 cm^3 At the day 25 (6 mice per group),[1]; 1 × 15 Gy/week,3/6
same,Number of mice where Tumor volume <4 cm^3 At the day 25 (6 mice per group),[1]; 3 × 5 Gy/week,3/6
